Here are results for one compound from ChEMBL document CHEMBL2176989, “Design, synthesis, and pharmacological evaluation of piperidin-4-yl amino aryl sulfonamides: novel, potent, selective, orally active, and brain penetrant 5-HT₆ receptor antagonists” (J Med Chem, 2012).

Data set [1] in a line: AUC (0 to 24 hrs) in fasted Wistar rat at 5 mg/kg, po. Conditions: plasma. In kind it is ADME, organism-based. Also on record: time < 24 hr, dose 5 mg/kg, route oral.
A short description of data set [2]: Cmax in fasted Wistar rat at 5 mg/kg, po. In kind it is ADME, organism-based. Also on record: dose 5 mg/kg, route oral. The following applies: in vivo.
A short description of data set [3]: Half life in beagle dog at 1 mg/kg, iv. In kind it is ADME, organism-based, Canis lupus familiaris. Also on record: dose 1 mg/kg, route intravenous. The following applies: in vivo.
Data set [4] is described as follows: Apparent volume of distribution in Wistar rat at 5 mg/kg, iv. Also on record: dose 5 mg/kg, route intravenous. The following applies: in vivo, read-out: Vz. It counts as ADME, organism-based.
Data set [5] has as its target T1, Alpha-1B adrenergic receptor (Homo sapiens, UniProt P35368).
T1 sequence (P35368 whole entry): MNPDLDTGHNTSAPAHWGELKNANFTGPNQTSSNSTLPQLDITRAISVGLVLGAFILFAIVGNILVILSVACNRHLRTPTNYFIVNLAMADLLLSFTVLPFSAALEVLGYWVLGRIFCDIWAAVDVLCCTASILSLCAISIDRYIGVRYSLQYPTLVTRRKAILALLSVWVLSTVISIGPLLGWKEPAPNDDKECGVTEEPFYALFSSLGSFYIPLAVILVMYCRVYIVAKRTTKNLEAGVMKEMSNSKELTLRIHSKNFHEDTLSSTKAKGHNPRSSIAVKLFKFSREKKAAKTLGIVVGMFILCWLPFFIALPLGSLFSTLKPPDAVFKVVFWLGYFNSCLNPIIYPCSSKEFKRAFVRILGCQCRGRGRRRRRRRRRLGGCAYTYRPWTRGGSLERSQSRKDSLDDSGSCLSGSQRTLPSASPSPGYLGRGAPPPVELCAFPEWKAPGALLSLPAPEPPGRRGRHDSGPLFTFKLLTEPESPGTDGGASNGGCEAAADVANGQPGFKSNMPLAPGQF
In words: Binding affinity to adrenergic alpha1B receptor.

The target of data set [6] is 5-hydroxytryptamine receptor 7 (Homo sapiens, UniProt P34969). In words: Binding affinity to 5HT7 receptor.
5-hydroxytryptamine receptor 7, sequence (P34969 whole entry): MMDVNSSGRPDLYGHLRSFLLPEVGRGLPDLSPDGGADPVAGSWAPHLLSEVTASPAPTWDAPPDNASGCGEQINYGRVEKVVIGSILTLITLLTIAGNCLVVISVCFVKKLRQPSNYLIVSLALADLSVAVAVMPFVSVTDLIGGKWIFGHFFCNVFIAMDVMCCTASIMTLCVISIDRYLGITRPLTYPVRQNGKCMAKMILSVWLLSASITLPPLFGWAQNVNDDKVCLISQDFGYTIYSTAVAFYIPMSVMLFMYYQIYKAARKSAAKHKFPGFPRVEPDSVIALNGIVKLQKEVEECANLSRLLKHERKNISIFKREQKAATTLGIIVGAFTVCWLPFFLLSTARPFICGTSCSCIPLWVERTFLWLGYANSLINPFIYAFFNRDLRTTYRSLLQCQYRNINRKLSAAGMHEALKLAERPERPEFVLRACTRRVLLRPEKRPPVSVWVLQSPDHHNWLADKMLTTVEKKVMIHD
Data set [7] has as its target 5-hydroxytryptamine receptor 6 (Homo sapiens) (UniProt P50406). Nature of the data set: Antagonist activity at human recombinant 5HT6 receptor expressed in CHO cells assessed as inhibition of 5HT-induced luciferase activity after 4 hrs by reporter gene assay relative to control. In kind it is functional, cell-based.

5-hydroxytryptamine receptor 6 (Homo sapiens), sequence (P50406 whole entry): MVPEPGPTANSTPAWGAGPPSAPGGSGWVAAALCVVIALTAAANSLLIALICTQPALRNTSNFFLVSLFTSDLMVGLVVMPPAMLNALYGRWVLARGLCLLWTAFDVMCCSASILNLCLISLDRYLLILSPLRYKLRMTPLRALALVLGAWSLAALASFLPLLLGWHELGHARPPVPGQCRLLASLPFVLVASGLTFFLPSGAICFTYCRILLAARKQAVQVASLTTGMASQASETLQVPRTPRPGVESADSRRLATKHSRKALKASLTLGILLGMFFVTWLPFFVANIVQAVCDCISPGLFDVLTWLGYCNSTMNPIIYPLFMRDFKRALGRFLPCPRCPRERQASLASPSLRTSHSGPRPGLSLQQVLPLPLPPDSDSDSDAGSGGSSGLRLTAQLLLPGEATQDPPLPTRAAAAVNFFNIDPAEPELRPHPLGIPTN

`COc1ccc(S(=O)(=O)n2cc(C)c3cc(Cl)cnc32)cc1NC1CCN(C)CC1`: the AUC(0-t) at 24 h in data set [1] was 389 ng·h/mL. For the same compound, the Cmax in data set [2] worked out at 156 ng/mL. Also, the half-life in data set [3] is 138 min. Moreover, the Vd in data set [4] turned out to be 10 L/kg. Further, the inhibition constant (Ki) in data set [5] stood at 3.79 µM; in data set [6], 1960 nM. Besides, the Imax in data set [7] is 100%.
